Data taken from PMC5986712, “Aminobenzothiazole derivatives stabilize the thermolabile p53 cancer mutant Y220C and show anticancer activity in p53-Y220C cell lines” (European Journal of Medicinal Chemistry, 2018).

Tests used:
[1] = test system: NUGC4 cells (wild-type p53); assay: Cell viability assay, NUGC4; assay type: cell-based; conditions: Homo sapiens, NUGC-4; 72 h, p53 WT
Experimental: (§1) We also envisaged that masking the carboxylate of MB710 as a simple ethylamide MB725 might influence cell permeability and uptake of the scaffold.
(§2) All cell lines were cultured as previously described. Cell viability was measured in quadruplicate (technical replicates) using the CellTiter-Fluor or CellTiter-Glo 2.0 cell viability assay kits (Promega, USA) as previously described.

[2] = test system: WI38 cells (non-cancerous fibroblast, p53 WT); assay: Cell viability assay, WI38; conditions: Homo sapiens, WI-38, 72 h, read-out: IC50 WI38
Experimental: (§3) All cell lines were cultured as previously described [9]. Cell viability was measured in quadruplicate (technical replicates) using the CellTiter-Fluor or CellTiter-Glo 2.0 cell viability assay kits (Promega, USA) as previously described [9].

[3] = test system: NUGC3 cells (p53-Y220C); assay: Cell viability assay (CellTiter-Fluor / CellTiter-Glo 2.0), NUGC3; assay type: cell-based, human; conditions: Homo sapiens, NUGC-3; 72 h, Y220C cell line
Experimental: as §1, §2

[4] = test system: BXPC-3 cells (p53-Y220C); assay: Cell viability assay, BXPC3; conditions: Homo sapiens, BXPC-3, 72 h, read-out: IC50 BXPC3
Experimental: as §3

[5] = Solubility (qualitative observation); assay type: physicochemical
[6] = biological target: T1, stabilized p53-Y220C DBD (residues 94–312) (Homo sapiens, UniProt P04637, M133L/N239Y/N268D/V203A/Y220C); assay: Differential scanning fluorimetry (DSF), thermal stabilization of Y220C; assay type: binding; conditions: 8 μM protein, 10 × SYPRO Orange, 250 μM ligand
T1 construct: Stabilized p53-Y220C DBD (residues 94–312) was expressed and purified; 6xHis / lipoyl domain / TEV protease cleavage site (N, cleaved yes); made in house; host or cells: E. coli C41
Experimental: DSF was performed as described. […] All samples were measured in triplicate.

[7] = test system: p53 cancer mutant Y220C; assay: Binding affinity to the Y220C pocket, values taken from earlier papers (ITC/NMR); conditions: Kd ratio
[8] = biological target: T1, stabilized p53-Y220C DBD (residues 94–312); assay: Isothermal titration calorimetry (ITC); assay type: binding; conditions: for Kd: ITC
Experimental: Isothermal Titration Calorimetry (ITC). ITC experiments were conducted as described. The cell unit contained 50 μM protein in a 25 mM KPi (pH 7.2), 150 mM NaCl, 1 mM TCEP, and 5% (v/v) DMSO assay buffer. The syringe contained 2–5 mM compound in the same buffer.

[9] = test system: SW1088 cells (p53-R273C); assay: Cell viability assay, SW1088; conditions: Homo sapiens, SW1088, 72 h, read-out: IC50 SW1088
Experimental: as §3

[10] = test system: HUH-7 and HUH-7 p53-Y220C KO cells; assay: Cell viability, HUH-7 versus isogenic HUH-7 p53-Y220C KO; assay type: cell-based, human; conditions: 72 h, at higher compound concentration than MB725
Description: To confirm that MB725 mediated anticancer effects are dependent on p53-Y220C, we additionally tested the compound in HUH-7 and an in-house CRISPR generated isogenic p53-Y220C knock-out (KO) HUH-7 cell line (Fig. 8). This new cell line contains a frameshift mutation at codon 124 on one allele and deletion of amino acids 125–223 on the other allele, leading to functional inactivation of the p53 DNA-binding domain (aa 92–292). MB725 decreased cell viability by ca. 30–40% more potently in HUH-7 than in the isogenic HUH-7 p53-Y220C KO (Fig. 8, upper panel).
Fig. 8 Assessment of p53-Y220C dependent effect of MB725. Treatment of HUH-7 (p53-Y220C) and HUH-7 p53-Y220C KO cell lines with MB725 for 72 h underscores the enhanced cytotoxicity of MB725 in the presence of p53-Y220C (left panel). […] Cell viability was measured in quadruplicate and normalized against the values of blank (viability = 1) and no cell (viability = 0) controls (left panel). […] Relative mRNA fold-change was measured in triplicate and normalized against untreated sample according to the ΔΔCt method. […]
WI-38 and BXPC-3 (p53-Y220C) cell lines were purchased from ATCC and HUH-7 (p53-Y220C+/+), HUH-6 (wild-type p53+/+). […] Cell viability was measured in quadruplicate (technical replicates) using the CellTiter-Fluor or CellTiter-Glo 2.0 cell viability assay kits (Promega, USA) as previously described. […]

[11] = test system: NUGC4, HUH-6, NUGC3, HUH-7, SW1088, BXPC-3, WI38 cells; assay: Cell viability across all cell lines tested; assay type: cell-based, human; conditions: 72 h treatment; 60 and MB710: at concentrations up to 60 μM
Experimental: as §1, §2

| SMILES | ΔTm at 250 µM [6] | Kd [8] | also measured |
| --- | --- | --- | --- |
| Cn1cc(-c2ccccc2)c(-n2cccc2)n1 [Compound 2] | – | – | IC50 [1]: > 120 µM; IC50 [2]: ~120 µM; IC50 [3]: 43 µM; IC50 [4]: 57 µM |
| CCN(CC)C1CCN(Cc2cc(C#CCNc3ccccc3)cc(I)c2O)CC1 [Compound 3] | – | – | IC50 [1]: 9 µM; IC50 [2]: 7 µM; IC50 [3]: 6 µM; IC50 [4]: 11 µM |
| O=C(O)c1cc(I)cc(I)c1O [Compound 4, 2-hydroxy-3,5-diiodobenzoic acid, reference compound] | – | – | solubility (in words) [5]: water soluble |
| COC(=O)c1cc(I)c(-n2cccc2)c(I)c1O [Compound 8, Methyl 2-hydroxy-3,5-diiodo-4-(1H-pyrrol-1-yl)benzoate] | -0.1 °C | – | – |
| O=C(O)c1cc(I)c(-n2cccc2)c(I)c1O [Compound 9, 2-hydroxy-3,5-diiodo-4-(1H-pyrrol-1-yl)benzoic acid] | – | – | fold more potent than parent fragment 4 [7]: 40 fold |
| CN(C)CCNC(=O)c1cc(I)c(-n2cccc2)c(I)c1O [Compound 10, N-(2-(dimethylamino)ethyl)-2-hydroxy-3,5-diiodo-4-(1H-pyrrol-1-yl)benzamide] | 1.3 °C | – | solubility (in words) [5]: substantially less soluble than carboxylic acid 9 |
| CN1CCN(C(=O)c2cc(I)c(-n3cccc3)c(I)c2O)CC1 [Compound 11, (2-hydroxy-3,5-diiodo-4-(1H-pyrrol-1-yl)phenyl)(4-methylpiperazin-1-yl)methanone] | 1.2 °C | 30 µM | – |
| CNC(=O)c1cc(I)c(-n2cccc2)c(I)c1O [Compound 12, 2-hydroxy-3,5-diiodo-N-methyl-4-(1H-pyrrol-1-yl)benzamide] | 0.9 °C | 70 µM | solubility (in words) [5]: substantially less soluble than carboxylic acid 9 |
| O=C(NO)c1cc(I)c(-n2cccc2)c(I)c1O [Compound 15, N,2-dihydroxy-3,5-diiodo-4-(1H-pyrrol-1-yl)benzamide] | 0.8 °C | 139 µM | – |
| CN(C)Cc1cc(I)c(-n2cccc2)c(I)c1O [Compound 17, 6-((dimethylamino)methyl)-2,4-diiodo-3-(1H-pyrrol-1-yl)phenol] | 0.9 °C | 60 µM | – |
| O=c1[nH][nH]c2c(I)c(-n3cccc3)c(I)cc12 [Compound 21, 5,7-diiodo-6-(1H-pyrrol-1-yl)-1,2-dihydro-3H-indazol-3-one] | 1.5 °C | 50 µM | – |
| CC(C)COc1cc(C(=O)O)c(O)c(I)c1-n1cccc1 [Compound 56, 2-hydroxy-3-iodo-5-isobutoxy-4-(1H-pyrrol-1-yl)benzoic acid] | 1.4 °C | 30 µM | – |
| CCN(CC)c1nc2c(C(=O)OC)c(O)c(I)c(-n3cccc3)c2s1 [Compound 71, Methyl 2-(diethylamino)-5-hydroxy-6-iodo-7-(1H-pyrrol-1-yl)benzo[d]thiazole-4-carboxylate] | – | – | solubility (in words) [5]: reduced solubility |

Further lines, with some results ahead:

| ΔTm at 250 µM [6] | Kd [8] | SMILES | also measured |
| --- | --- | --- | --- |
| 1 °C | 306 µM | O=C(O)c1cc(-c2ccccc2)c(-n2cccc2)c(I)c1O [Compound 33, 4-hydroxy-5-iodo-6-(1H-pyrrol-1-yl)-[1,1'-biphenyl]-3-carboxylic acid] | – |
| 0.8 °C | 113 µM | O=C(O)c1cc(-c2ccc(F)cc2)c(-n2cccc2)c(I)c1O [Compound 34, 4'-fluoro-4-hydroxy-5-iodo-6-(1H-pyrrol-1-yl)-[1,1'-biphenyl]-3-carboxylic acid] | – |
| 1 °C | 122 µM | COc1ccc(-c2cc(C(=O)O)c(O)c(I)c2-n2cccc2)cc1 [Compound 35, 4-hydroxy-5-iodo-4'-methoxy-6-(1H-pyrrol-1-yl)-[1,1'-biphenyl]-3-carboxylic acid] | – |
| 1.3 °C | 63 µM | CCOc1cc(C(=O)O)c(O)c(I)c1-n1cccc1 [Compound 49, 5-ethoxy-2-hydroxy-3-iodo-4-(1H-pyrrol-1-yl)benzoic acid] | times less potent than the parent iodine ([8]; Kd ratio versus parent iodine (21 μM)): 3 |
| 1.8 °C | 33 µM | C=CCOc1cc(C(=O)O)c(O)c(I)c1-n1cccc1 [Compound 51, 5-(allyloxy)-2-hydroxy-3-iodo-4-(1H-pyrrol-1-yl)benzoic acid] | – |
| 1.4 °C | 108 µM | O=C(O)c1cc(OCCC(F)(F)F)c(-n2cccc2)c(I)c1O [Compound 53, 2-hydroxy-3-iodo-4-(1H-pyrrol-1-yl)-5-(3,3,3-trifluoropropoxy)benzoic acid] | – |
| 0.6 °C | 726 µM | O=C(O)c1cc(OCCO)c(-n2cccc2)c(I)c1O [Compound 54, 2-hydroxy-5-(2-hydroxyethoxy)-3-iodo-4-(1H-pyrrol-1-yl)benzoic acid] | – |
| 1 °C | 116 µM | O=C(O)c1cc(OCCc2ccccc2)c(-n2cccc2)c(I)c1O [Compound 55, 2-hydroxy-3-iodo-5-phenethoxy-4-(1H-pyrrol-1-yl)benzoic acid] | – |
| 2 °C | 4 µM | CCN(CC)c1nc2c(C(=O)O)c(O)c(I)c(-n3cccc3)c2s1 [Compound 70, 2-(diethylamino)-5-hydroxy-6-iodo-7-(1H-pyrrol-1-yl)benzo[d]thiazole-4-carboxylic acid] | IC50 [1]: ~120 µM; IC50 [2]: > 120 µM; IC50 [9]: > 120 µM; viability reduction HUH-7 versus HUH-7 p53-Y220C KO (in words) [10]: stronger viability reduction in HUH-7 cells than in HUH-7 p53-Y220C KO cells; IC50 [3]: 90 µM; toxicity and selectivity across cell lines (in words) [11]: relatively low toxicity against all cell lines tested; fold increase in affinity compared to starting fragment 4 ([8]; Kd ratio): 200 fold |
